According to the NIST ThermoML archive (doi:10.1021/je0603325):

Key:
[1] = 101 kPa, Liquid
[2] = molar heat capacity at constant pressure; details: 101 kPa, Liquid, Small sample (50 mg) DSC
[3] = xn = mol fraction of the nth substance listed; details: 101 kPa, Liquid, x2 = 0

BrCCBr [1,2-dibromoethane]
Details | mass density [kg/m3] | molar heat capacity at constant pressure [J/K/mol] | speed of sound [m/s]
[1], 292.84 K | – | – | 1007.5
[1], 293.15 K | 2178.77 | – | –
[1], 298.15 K | 2168.41 | – | –
[1], 299.17 K | – | – | 991.14
[1], 303.15 K | 2157.94 | – | –
[1], 303.37 K | – | – | 980.18
[1], 308.15 K | 2147.47 | – | –
[1], 308.75 K | – | – | 966.56
[1], 313.15 K | 2136.96 | – | –
[1], 314.45 K | – | – | 952
[2], 293.15 K | – | 136.87 | –
[2], 294.15 K | – | 136.9 | –
[2], 295.15 K | – | 136.95 | –
[2], 296.15 K | – | 136.99 | –
[2], 297.15 K | – | 137.02 | –
[2], 298.15 K | – | 137.04 | –
[2], 299.15 K | – | 137.09 | –
[2], 300.15 K | – | 137.11 | –
[2], 301.15 K | – | 137.15 | –
[2], 302.15 K | – | 137.2 | –
[2], 303.15 K | – | 137.25 | –
[2], 304.15 K | – | 137.29 | –
[2], 305.15 K | – | 137.32 | –
[2], 306.15 K | – | 137.39 | –
[2], 307.15 K | – | 137.42 | –
[2], 308.15 K | – | 137.49 | –
[2], 309.15 K | – | 137.53 | –
[2], 310.15 K | – | 137.6 | –
[2], 311.15 K | – | 137.65 | –
[2], 312.15 K | – | 137.71 | –
[2], 313.15 K | – | 137.77 | –

CCCCCCC [heptane]
[1]
Details | mass density [kg/m3]
293.15 K | 683.82
298.15 K | 679.59
303.15 K | 675.31
308.15 K | 671.02
313.15 K | 666.68

CCCCCCC [heptane] + BrCCBr
[3]
Details | mass density [kg/m3]
293.15 K | 683.82
298.15 K | 679.59
303.15 K | 675.31
308.15 K | 671.02
313.15 K | 666.68
